This note sets out measurements from ChEMBL document CHEMBL3259752, “Cell permeable vanX inhibitors as vancomycin re-sensitizing agents” (Bioorg Med Chem Lett, 2014).

Structures are written as SMILES. Active and inactive are the calls of the source. The calls are words filed in the database; no cut-off is given here.

Series [1] has as its target T1, D-alanyl-D-alanine dipeptidase (Enterococcus faecium, UniProt Q06241).
T1 sequence (Q06241 whole entry): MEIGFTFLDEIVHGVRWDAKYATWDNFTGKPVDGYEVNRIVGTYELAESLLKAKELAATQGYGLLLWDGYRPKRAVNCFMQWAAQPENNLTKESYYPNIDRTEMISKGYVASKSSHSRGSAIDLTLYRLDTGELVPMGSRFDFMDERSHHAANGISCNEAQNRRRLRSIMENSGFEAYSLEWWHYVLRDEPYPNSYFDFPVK
In words: Inhibition of Enterococcus faecium VanX expressed in Escherichia coli BL21 (DE3) cells using D-alanyl-alpha-R-phenylthioglycine as substrate by colorimetric assay.

The subject of series [2] is Enterococcus faecium. In words: Antibacterial activity against vancomycin-resistant Enterococcus faecium E12-2 assessed as growth inhibition by checkerboard analysis. The series is classed as functional, organism-based.
Series [3] has as its system Enterococcus faecium. In words: Increase in vancomycin sensitivity in vancomycin-resistant Enterococcus faecium E12-2 assessed as reduction in vancomycin MIC at 212 ug/ml by checkerboard analysis. It is filed as functional, organism-based.
Series [4] can be described thus: Cytotoxicity against HEK293 cells after 72 hrs by MTT assay. The series is classed as cell-based. The conditions noted are these: human. In general terms: Tetrazolium dyes change colour on reduction, which living cells bring about.
For series [5], the system named is Enterococcus faecium. In words: Increase in vancomycin sensitivity in vancomycin-resistant Enterococcus faecium E12-2 assessed as reduction in vancomycin MIC at 72 ug/ml by checkerboard analysis. It is filed as functional, organism-based.

What is called Ki is a dissociation constant, usually derived from enzyme kinetics or from competition with a known ligand. Low readings indicate higher affinity, high ones lower affinity. A word on the CC50: it is the concentration that lowers cell viability or growth by half.

Compound `C[C@@H](N)P(=O)(O)C[C@H](C(=O)O)c1ccccc1` yielded a Ki in series [1] of 2.9 µM.
`CC(C)[C@H](CP(=O)(O)[C@@H](C)N)C(=O)O` gave a Ki in series [1] of 6.1 µM.
As to `C[C@@H](NC(=O)c1cccc(=S)n1O)C(=O)O`, affinity in series [1] was put at a Ki of 6.84 µM. For the same compound, the inhibition entry in the series with Enterococcus faecium [2] was “inactive”. Further, the outcome with Enterococcus faecium [3] was Active. Moreover, the CC50 at 72 h in series [4] was determined as 76 µM.
Compound `C[C@H](CP(=O)(O)[C@@H](C)N)C(=O)O` gave a Ki in series [1] of 1.5 µM.
In turn, `O=C(N[C@@H](C(=O)O)c1ccccc1)c1cccc(=S)n1O` registered a Ki in series [1] of 2.74 µM. Further, the inhibition result in the series on Enterococcus faecium [2] is “inactive”. The outcome with Enterococcus faecium [5] was Active. The CC50 at 72 h in series [4] worked out at 64 µM.
In series [4], `CN[C@H](CC(C)C)C(=O)N[C@H]1C(=O)N[C@@H](CC(N)=O)C(=O)N[C@H]2C(=O)N[C@H]3C(=O)N[C@H](C(=O)N[C@H](C(=O)O)c4cc(O)cc(O)c4-c4cc3ccc4O)[C@H](O)c3ccc(c(Cl)c3)Oc3cc2cc(c3O[C@@H]2O[C@H](CO)[C@@H](O)[C@H](O)[C@H]2O[C@H]2C[C@](C)(N)[C@H](O)[C@H](C)O2)Oc2ccc(cc2Cl)[C@H]1O` [VANCOMYCIN] showed a CC50 at 72 h greater than 100 µM.
The same measure, in the same setting: to `CC1(C)S[C@@H]2[C@H](NC(=O)[C@H](N)c3ccc(O)cc3)C(=O)N2[C@H]1C(=O)O` [AMOXICILLIN] belongs 24 µM.
